From patent US9192568B2, “Formulations comprising jorumycin-, renieramycin-, safracin- or saframycin-related compounds for treating proliferative diseases” (Pharma Mar, S.A., priority 2005, dated 2015)

Columns and labels:
[1] = tested on: solid and non-solid tumor cell lines; settings: cited from earlier work
[2] = tested on: xenografted human cell lines in mice, such as breast and prostate; settings: several xenografted human cell lines in mice; cited from earlier work
Aqueous solubility = type: physicochemical
Description: These characteristics challenge the ordinary skills and conventional methodologies in this technology, particularly when it comes to the preparation of formulations of these compounds that are to be readily used for medical purposes. Such uses preferably rely on formulations whose characteristics include one or more of the following: biocompatibility, stability under ambient conditions, or under conditions that are as near to ambient conditions as possible, with a shelf life that is as long as possible, and easy reconstitutability to form reconstituted solutions that are as stable under ambient, or near ambient conditions, for as long as possible.

Row | Compound | in vitro activity [1] | in vivo activity [2] | aqueous solubility (Aqueous solubility)
1 | COc1c(C)cc2c(c1O)[C@@H]1[C@@H]3Cc4c(OC(C)=O)c(C)c5c(c4[C@H](CNC(=O)/C=C/c4cccc(C(F)(F)F)c4)N3[C@@H](O)[C@H](C2)N1C)OCO5 [PM00104] | significant in vitro activity | significant in vivo activity | limited aqueous solubility
2 | COc1c(C)cc2c(c1O)[C@@H]1[C@@H]3Cc4c(OC(C)=O)c(C)c5c(c4[C@H](COC(=O)/C=C/c4ccccc4)N3[C@@H](O)[C@H](C2)N1C)OCO5 [PM00121] | – | – | limited aqueous solubility
